This is an account of results in US11091490B2, “3-amino-1,5-dihydro-pyrazolo[3,4-d]pyrimidin-4-ones as cyclin dependent kinase inhibitors” (Oncotyrol Center for Personalized Cancer Medicine GMBH, priority 2016, dated 2021).

Molecules are shown by their SMILES. Several values for one entry are separate records, joined by “and”; a condition that tells them apart may be missing. Equal values may be shown once. Read-outs that look alike come from different tables or passages of the source.

For experiment [1], the system named is RPMI-8226/GN1. Nature of the experiment: Multiple myeloma cells in mono- and co-culture with osteoblasts, imaging based detection (RPMI-8226). The class given is cell-based. On the procedure: (§1) Compound 86 has been compared with the key compound of WO 2000/21926 A2 (Example 121) in an imaging based detection system.
(§2) Two different multiple myeloma (MM) cell lines (RPMI-8226 (DSMZ, ACC 402), NCI-H929 DSMZ, ACC 163) have been used and were cultured in mono- and co-culture with osteoblasts (OB) (Osteoblasts were obtained by culturing hMSCs with a differentiation inducing medium for two weeks) in accordance with the method of Karadag A. et al. Journal of Bone and Mineral Research Vol. 15, No. 10, 2000 page 1935-43.

Experiment [2] relates to NCI-H929/GN2. Nature of the experiment: Multiple myeloma cells in mono- and co-culture with osteoblasts, imaging based detection (NCI-H929). The class given is cell-based. Here is the method: as §1, §2

By EC50 is commonly meant the concentration at which the effect is half-maximal.

`CC(C)c1nn(-c2c(Cl)cc(Cl)cc2Cl)c2nc(Cc3ccc(NC(=O)C4CN(C)CCN4C)cc3)[nH]c(=O)c12` (centres unmarked) [Reference compound, reference compound]: the EC50 was 420 nM in experiment [1] (Homo sapiens, RPMI-8226, RPMI-8226/GN1, co-culture with osteoblasts, read-out: co-culture (+ OB) EC50); 120 nM in experiment [1] (Homo sapiens, RPMI-8226, RPMI-8226/GN1, mono-culture, read-out: mono-culture EC50); 520 nM and 650 nM in experiment [1] (RPMI-8226/GN1, co-culture with osteoblasts, read-out: co-culture (+ OB) EC50); 200 nM and 210 nM in experiment [1] (RPMI-8226/GN1, mono-culture, read-out: mono-culture EC50); 160 nM in experiment [2] (Homo sapiens, NCI-H929, NCI-H929/GN2, co-culture with osteoblasts, read-out: co-culture (+ OB) EC50); 50 nM in experiment [2] (Homo sapiens, NCI-H929, NCI-H929/GN2, mono-culture, read-out: mono-culture EC50). Moreover, the EC50 in experiment [2] (NCI-H929/GN2, co-culture with osteoblasts, read-out: co-culture (+ OB) EC50) turned out to be 150 nM; in experiment [2] (NCI-H929/GN2, mono-culture, read-out: mono-culture EC50), 65 nM.
